# Reference: patent US4468511A, “C-20- And C-23-Modified macrolide derivatives” (Eli Lilly and Company, priority 1983, dated 1984)
# Where two headings read alike, the source gives them in different places.
# Experiments:
# Escherichia coli EC14 = assay: MIC, standard agar-dilution assay; type: cell-based; conditions: Escherichia coli, EC14
# Experimental: (§1) Certain of the derivatives are active against some gram-negative bacteria, such as Pasteurella species. The MIC's in Table II were determined by standard agar-dilution assays. The MIC's in Table III were obtained using a conventional broth-dilution microtiter test.
# Escherichia coli TEM = assay: MIC, standard agar-dilution assay; type: cell-based; conditions: Escherichia coli
# Procedure, shortened: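 Antibacterial activity toward the gram-negative organism Escherichia coli was assessed by conventional agar dilution. The MIC, reported in ug/mL, is the minimum compound concentration on agar that prevents growth.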
# [1] = test system: Klebsiella pneumoniae KAE; assay: MIC, standard agar-dilution assay; type: cell-based; conditions: Klebsiella pneumoniae
# Procedure, shortened: (§2)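 Broth microdilution MICs cover P. hemolytica, P. multocida and M. gallisepticum. The agar-dilution MIC covers K. pneumoniae only.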
# [2] = test system: Klebsiella pneumoniae X26; assay: MIC, standard agar-dilution assay; type: cell-based; conditions: Klebsiella pneumoniae, X26
# Procedure, shortened: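 Method depends on organism. Klebsiella pneumoniae was assayed on agar. Pasteurella spp. and Mycoplasma gallisepticum were assayed in broth microtiter dilution.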
# [3] = test system: Staphylococcus aureus V41; assay: MIC, standard agar-dilution assay; type: cell-based; conditions: Staphylococcus aureus, V41
# Experimental: as §1
# [4] = test system: Staphylococcus aureus X1.1; assay: MIC, standard agar-dilution assay; type: cell-based; conditions: Staphylococcus aureus, X1.1
# Procedure, shortened: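 A standard agar-dilution assay was used to test compounds against the Staphylococcus aureus isolate X1.1. Bacterial growth on agar with different compound concentrations was assessed, and the minimum inhibitory concentration was recorded in ug/mL.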
# [5] = test system: Streptococcus Group D X66; assay: MIC, standard agar-dilution assay; type: cell-based
# Experimental: as §1
# [6] = test system: Streptococcus pneumoniae Park I; assay: MIC, standard agar-dilution assay; type: cell-based; conditions: Streptococcus pneumoniae
# Experimental: as §1
# [7] = test system: Streptococcus pyogenes 9960; assay: MIC, standard agar-dilution assay; type: cell-based; conditions: 9960
# Experimental: as §1
# [8] = test system: Streptococcus pyogenes C203; assay: MIC, standard agar-dilution assay; type: cell-based; conditions: Streptococcus pyogenes, C203
# Experimental: as §1
# [9] = test system: Haemophilus influenzae 76; assay: MIC, standard agar-dilution assay; type: cell-based; conditions: Haemophilus influenzae, 76
# Experimental: (§3) The MIC's in Table II were determined by standard agar-dilution assays. The MIC's in Table III were obtained using a conventional broth-dilution microtiter test.
# [10] = test system: Haemophilus influenzae C.L.; assay: MIC, standard agar-dilution assay; type: cell-based; conditions: Haemophilus influenzae
# Experimental: as §3
# [11] = test system: Staphylococcus aureus X400; assay: MIC, standard agar-dilution assay; type: cell-based; conditions: Staphylococcus aureus, X400
# Experimental: as §3
# [12] = test system: Staphylococcus epidermidis EPI2; assay: MIC, standard agar-dilution assay; type: cell-based; conditions: Staphylococcus epidermidis, EPI2
# Experimental: as §3
# [13] = test system: Staphylococcus aureus S13E; assay: microbe, parasite or virus in culture; type: cell-based
# Experimental: as §3
# [14] = test system: Staphylococcus epidermidis EPI1; assay: microbe, parasite or virus in culture; type: cell-based; conditions: Staphylococcus epidermidis, EPI1
# Experimental: as §3
# [15] = test system: Mycoplasma gallisepticum 34159; assay: MIC, conventional broth-dilution microtiter test; type: cell-based; conditions: Mycoplasmoides gallisepticum, 34159
# Procedure, shortened: as §2
# [16] = test system: Mycoplasma gallisepticum 41313; assay: MIC, conventional broth-dilution microtiter test; type: cell-based; conditions: Mycoplasmoides gallisepticum, 41313
# Procedure, shortened: as §2
# Mycoplasma gallisepticum = assay: MIC, conventional broth-dilution microtiter test; type: cell-based; conditions: Mycoplasmoides gallisepticum
# Procedure, shortened: as §2
# Mycoplasma hyorhinis = assay: MIC, conventional broth-dilution microtiter test; type: cell-based; conditions: Mycoplasma
# Procedure, shortened: (§4)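 Two formats were used. Broth dilution in microtiter plates served for Pasteurella and Mycoplasma, while agar dilution served for Klebsiella.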
# Mycoplasma synoviae = assay: MIC, conventional broth-dilution microtiter test; type: cell-based; conditions: Mycoplasmopsis synoviae
# Procedure, shortened: as §4
# [17] = test system: Pasteurella hemolytica 22C; assay: MIC, conventional broth-dilution microtiter test; type: cell-based; conditions: Pasteurella, 22C
# Procedure, shortened: as §2
# [18] = test system: Pasteurella hemolytica 23C; assay: MIC, conventional broth-dilution microtiter test; type: cell-based; conditions: Pasteurella, 23C
# Procedure, shortened: as §2
# [19] = test system: Pasteurella hemolytica 41D; assay: MIC, conventional broth-dilution microtiter test; type: cell-based; conditions: Pasteurella, 41D
# Procedure, shortened: as §2
# [20] = test system: Pasteurella multocida 17E; assay: MIC, conventional broth-dilution microtiter test; type: cell-based; conditions: Pasteurella multocida, 17E
# Procedure, shortened: as §2
# [21] = test system: Pasteurella multocida 22A; assay: MIC, conventional broth-dilution microtiter test; type: cell-based; conditions: Pasteurella multocida, 22A
# Procedure, shortened: as §2
# [22] = test system: Pasteurella multocida 40G; assay: MIC, conventional broth-dilution microtiter test; type: cell-based; conditions: Pasteurella multocida, 40G
# Procedure, shortened: as §2
# [23] = test system: Pasteurella multocida 60A; assay: MIC, conventional broth-dilution microtiter test; type: cell-based; conditions: Pasteurella multocida, 60A
# Procedure, shortened: as §2
# [24] = test system: Pasteurella multocida 68C; assay: MIC, conventional broth-dilution microtiter test; type: cell-based; conditions: Pasteurella multocida, 68C
# Procedure, shortened: as §2
# Staphylococcus aureus = assay: MIC, conventional broth-dilution microtiter test; type: cell-based
# Experimental: as §1
# Streptococcus sp. 80 = assay: MIC, conventional broth-dilution microtiter test; type: cell-based; conditions: Streptococcus, SP.80
# Experimental: as §1
# [25] = test system: Streptococcus pyogenes C203; assay: Protection of mice experimentally infected with S. pyogenes C203; type: in vivo;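 also: two doses given 1 and 4 hours after infection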
# Experimental: Some of the derivatives of this invention have shown in vivo antimicrobial activity against experimentally-induced infections in laboratory animals. When two doses of test compound were administered to mice experimentally infected with S. pyogenes C203, the activity observed was measured as an ED50 value [effective dose in mg/kg to protect 50% of the test animals: see Warren Wick, et al., J. Bacteriol. 81, 233-235 (1961)].
smiles,measurement,setting,value
"CCC1CC(C)C(=O)C=CC(C)=CC(COC(=O)Cc2ccccc2)C(CC)OC(=O)CC(O)C(C)C1OC1OC(C)C(O)C(N(C)C)C1O (stereo not drawn) [Compound 41, 23-O-Phenylacetyl-20-deoxy-20-dihydro-OMT]",MIC,Escherichia coli EC14,128 µg/mL
same,MIC,Escherichia coli TEM,16 µg/mL
same,MIC,[1],> 128 µg/mL
same,MIC,[2],4 µg/mL
same,MIC,[3],0.5 µg/mL
same,MIC,[4],0.5 µg/mL
same,MIC,[5],1 µg/mL
same,MIC,[6],0.25 µg/mL
same,MIC,[7],1 µg/mL
same,MIC,[8],0.5 µg/mL
same,MIC,[9],8 µg/mL
same,MIC,[10],8 µg/mL
same,MIC,[11],0.5 µg/mL
same,MIC,[12],0.5 µg/mL
same,MIC,[13],0.5 µg/mL
same,MIC,[14],0.5 µg/mL
same,MIC,[15],50 µg/mL
same,MIC,[16],50 µg/mL
same,MIC,Mycoplasma gallisepticum,3.12 µg/mL
same,MIC,Mycoplasma hyorhinis,50 µg/mL
same,MIC,Mycoplasma synoviae,3.12 µg/mL
same,MIC,[17],12.5 µg/mL
same,MIC,[18],12.5 µg/mL
same,MIC,[19],12.5 µg/mL
same,MIC,[20],12.5 µg/mL
same,MIC,[21],25 µg/mL
same,MIC,[22],12.5 µg/mL
same,MIC,[23],3.12 µg/mL
same,MIC,[24],3.12 µg/mL
same,MIC,Staphylococcus aureus,0.78 µg/mL
same,MIC,Streptococcus sp. 80,1.56 µg/mL
same,ED50,"[25]; C203, po, read-out: ED50 Oral",> 100 mg/kg
same,ED50,"[25]; C203, sc, read-out: ED50 Subcutaneous",> 25 mg/kg
